Data published in US20220265845A1, “AMINOTHIOLESTER COMPOUNDS AND USES THEREOF” (ADVANCED BIODESIGN, priority 2019, published 2022).

These molecules were tested on HL-60 (assay: Cell viability assay (Resazurin), cytotoxicity in HL60 cells). Settings: Homo sapiens, HL-60, read-out: IC50 at 48 h, 48 hours of incubation.
Type: cell-based
Procedure: Cell lines. Leukemic cell line, HL-60 (derived from a person with AML-M2), was used for determination of drug efficacy. Cells were obtained from the European Collection of Cell Cultures (ECACC). All cells were cultivated in appropriate media according to supplier recommendations.
Cell Viability assay, 96-well format. Cells were seeded into 96-well cell culture plates at concentrations required to ensure approximately 80% confluence in control (untreated cells) at the end of experiment (0.5×10^4-5×10^4 cell/well).
The sensitivity towards compounds according to the invention was determined using different concentrations of each compound ranging from 0.5 to 100 μM (0.5, 1, 2, 5, 10, 15, 20, 25, 30, 40, 50, 100 μM). Following 48 hours of incubation at 37° C. in a humidified atmosphere containing 5% CO2, the growth-inhibitory effect of compounds was analyzed using Resazurin, according to manufactures instructions.
To ensure good data quality and to minimize impact of pipetting errors, each compounds concentration was assessed based on mean fluorescence intensity from 8 separate wells. Compounds response were quantified by the half maximal inhibitory concentration (IC50) for each particular cell line, and determined by non-linear regression analysis of log-dose/response curves.
Statistical Analysis. Values were expressed as mean±SD or frequencies and proportions. Cell viability curves were determined using four parameter regression line. Differences between groups were determined by unpaired t test, Chi-square, Fisher's exact test or ANOVA, where appropriate. P<0.05 was considered statistically significant. Analysis was performed using GraphPad prism version 5.0 (GraphPad software, San Diego Calif. USA).
Work on `CCOCCN(C)C(C)(C)C#CC(=O)SC` [Example 1, S-methyl 4-[2-ethoxyethyl(methyl)amino]-4-methyl-pent-2-ynethioate] yielded an IC50 of 4.98 µM. `C=CCOCCN(C)C(C)(C)C#CC(=O)SC` [Example 2, S-methyl 4-[2-allyloxyethyl(methyl)amino]-4-methyl-pent-2-ynethioate] showed an IC50 of 6.5 µM. For `CSC(=O)C#CC(C)(C)N(C)CCOCc1cccc(C)c1` [Example 4, S-methyl 4-methyl-4-[methyl-[2-(m-tolylmethoxy)ethyl]amino]pent-2-ynethioate], the IC50 was 5.62 µM. `COc1ccc(COCCN(C)C(C)(C)C#CC(=O)SC)cc1` [Example 6, S-methyl 4-[2-[(4-methoxyphenyl)methoxy]ethyl-methyl-amino]-4-methyl-pent-2-ynethioate] gave an IC50 of 6.48 µM. Molecule `COc1ccc(COCCN(C)C(C)(C)C#CC(=O)SC)cc1OC` [Example 7, S-methyl 4-[2-[(3,4-dimethoxyphenyl)methoxy]ethyl-methyl-amino]-4-methyl-pent-2-ynethioate] has an IC50 of 6.08 µM. `CSC(=O)C#CC(C)(C)N(C)CCOCc1cccc(Cl)c1` [Example 8, S-methyl 4-[2-[(3-chlorophenyl)methoxy]ethyl-methyl-amino]-4-methyl-pent-2-ynethioate] showed an IC50 of 7.07 µM. Work on `CSC(=O)C#CC(C)(C)N(C)CCOCc1cccc(F)c1` [Example 9, S-methyl 4-[2-[(3-fluorophenyl)methoxy]ethyl-methyl-amino]-4-methyl-pent-2-ynethioate] yielded an IC50 of 6.65 µM. With `CSC(=O)C#CC(C)(C)N(C)CCOCc1ccccn1` [Example 10, S-methyl 4-methyl-4-[methyl-[2-(2-pyridylmethoxy)ethyl]amino]pent-2-ynethioate] the IC50 was 5.62 µM. Work on `CSC(=O)C#CC(C)(C)N(C)CCOCc1cccnc1` [Example 11, S-methyl 4-methyl-4-[methyl-[2-(3-pyridylmethoxy)ethyl]amino]pent-2-ynethioate] yielded an IC50 of 6.56 µM. Molecule `CSC(=O)C#CC(C)(C)N(C)CCOCc1ccncc1` [Example 12, S-methyl 4-methyl-4-[methyl-[2-(4-pyridylmethoxy)ethyl]amino]pent-2-ynethioate] has an IC50 of 5.68 µM. In the case of `COC(=O)C#CC(C)(C)N(C)C` [Example 13, methyl 4-(dimethylamino)-4-methyl-pent-2-ynoate], the IC50 is reported as 42.7 µM. In the case of `CCOC(=O)C#CC(C)(C)N(C)C` [Example 14, ethyl 4-(dimethylamino)-4-methyl-pent-2-ynoate], the IC50 is reported as 40 µM. `CN(C)C(C)(C)C#CC(=O)SCC(=O)OC(C)(C)C` [Example 15, tert-butyl 2-((4-(dimethylamino)-4-methylpent-2-ynoyl)thio)acetate] showed an IC50 of 25 µM. `CN(C)C(C)(C)C#CC(=O)SCC(=O)O` [Example 16, 2-((4-(dimethylamino)-4-methylpent-2-ynoyl)thio)acetic acid] was tested, and the IC50 was 22.5 µM. `CSC(=O)C#CC(C)(C)N(C)CCCCOCc1ccccc1` [Example 17, S-methyl 4-((4-(benzyloxy)butyl)(methyl)amino)-4-methylpent-2-ynethioate] was tested, and the IC50 was 11.3 µM. Work on `CSC(=O)C#CC(C)(C)N(C)CCO` [Example 18, S-methyl 4-((2-hydroxyethyl)(methyl)amino)-4-methylpent-2-ynethioate] yielded an IC50 of 6.75 µM. Work on `CSC(=O)C#CC(C)(C)N(C)CCOCc1ccc2ccccc2c1` [Example 19, S-methyl 4-methyl-4-[methyl-[2-(2-naphthylmethoxy)ethyl]amino]pent-2-ynethioate] yielded an IC50 of 11.3 µM. With `CSC(=O)C#CC(C)(C)N(C)CCOCC1=C(C)CCCC1(C)C` [Example 20, S-methyl 4-methyl-4-[methyl-[2-[(2,6,6-trimethylcyclohexen-1-yl)methoxy]ethyl]amino]pent-2-ynethioate] the IC50 was 13.6 µM. In the case of `CSC(=O)C#CC(C)(C)N(C)CCOC(C)=O` [Example 21, 2-[(1,1-dimethyl-4-methylsulfanyl-4-oxo-but-2-ynyl)-methylamino]ethyl acetate], the IC50 is reported as 12.7 µM. `COc1ccc(C(=O)OCCN(C)C(C)(C)C#CC(=O)SC)cc1OC` [Example 22, 2-[(1,1-dimethyl-4-methylsulfanyl-4-oxo-but-2-ynyl)-methylamino]ethyl-3,4-dimethoxybenzoate] showed an IC50 of 15.3 µM. For `CSC(=O)C#CC(C)(C)N(C)CCOC(=O)N(C)CCN(C)C` [Example 23, S-methyl 2,5,10,11,11-pentamethyl-6-oxo-7-oxa-2,5,10-triazatetradec-12-yne-14-thioate], the IC50 was 10.6 µM. With `COC[C@@H]1CCCN1C(C)(C)C#CC(=O)SC` [Example 24, (S)—S-methyl 4-(2-(methoxymethyl)pyrrolidin-1-yl)-4-methylpent-2-ynethioate] the IC50 was 20.5 µM. In the case of `CO[C@@H]1CCN(C(C)(C)C#CC(=O)SC)C1` [Example 25, S-methyl 4-[(3R)-3-methoxypyrrolidin-1-yl]-4-methyl-pent-2-ynethioate], the IC50 is reported as 16.5 µM. `CSC(=O)C#CC(C)(C)N(C)[C@@H]1CCC[C@H]1OCc1ccccc1` [Example 26, S-methyl 4-(((1R,2R)-2-(benzyloxy)cyclopentyl)(methyl)amino)-4-methylpent-2-ynethioate] gave an IC50 of 17.5 µM. With `CSC(=O)C#CC(C)(C)N1CCC[C@H]1COCc1ccccc1` [Example 27, (S)—S-methyl 4-(2-((benzyloxy)methyl)pyrrolidin-1-yl)-4-methylpent-2-ynethioate] the IC50 was 10.4 µM. Molecule `CSC(=O)C#CC(C)(C)N1CC[C@@H](OCc2ccccc2)C1` [Example 28, (R)—S-methyl 4-(3-(benzyloxy)pyrrolidin-1-yl)-4-methylpent-2-ynethioate] has an IC50 of 11.8 µM.

These molecules were tested on Raji cells (assay: Cell cytotoxicity by Rituximab-compound 9 (Alamar Blue)). Settings: treatment of 50 μg/ml.
Procedure: 50 000 viable Raji cells were plated in triplicate. […] The cells were incubated for 48 h at which time 20 μl of Alamar Blue (Thermo Fisher Scientific) was added to each well. The plates were incubated for an additional four hours and the fluorescence intensity read on a plate reader using excitation wavelength of 540 nm and an emission wavelength of 620 nm.
In the case of “Rituximab: Antibody rituximab (Roche), target CD20 [reference compound]”, the “Mean viability of Raji cells in percentage comparing to the non-treated cells” value is reported as 85.50%±2.268%.
